# Source: paper PMC12498288 (Frontiers in Immunology, 2025)
# Values joined by “and” are separate entries in the source; they are usually repeats but may differ in a detail not shown here. Equal entries are not always repeated. Where two headings read alike, the source gives them in different places.
# Assays:
# SARS-CoV-1 = assay: microbe, parasite or virus in culture; format: cell-based, SARS-CoV-1 (SARS-CoV-HKU-39849); conditions: Severe acute respiratory syndrome coronavirus, Vero
# [1] = Pharmacokinetics after a single oral dose in Syrian hamsters (serum, HPLC-MS/MS); format: in vivo; conditions: for C(24 h): mean concentration at 24 h; for Cmax / AUC / Tmax / half-life: po
# Text: Zapnometinib was synthesized by Chemcon GmbH (Freiburg, Germany). Before administration to Syrian hamsters, it was freshly dissolved in dimethyl sulfoxide (DMSO) (Carl Roth GmbH, Karlsruhe, Germany) and then further dissolved in 15% Kolliphor EL (Sigma-Aldrich, Germany) and 80% phosphate-buffered saline (PBS) (Gibco, Life Technology Europe B.V., Bleiswijk, the Netherlands). Kolliphor EL is used to emulsify and solubilize oils and other water in-soluble substances, it has been used as a pharmaceutical solvent for numerous drugs and has proven in previous in vivo studies with zapnometinib. Zapnometinib was administered orally at the indicated doses in a volume of 500 μL/150 g body weight using a gavage needle.
# Drug administration and blood sampling in Syrian hamsters were performed by Viroclinics Xplore (Schaijk, the Netherlands) and are described in the sections “Drug administration” and “Sampling after inoculation”. Specifically, at different time points (0, 0.5, 1, 2, 4, 8, 12, and 24 h) after the administration of a single dose of zapnometinib (15, 30, or 60 mg/kg per oral (p.o.)), ~200 µL blood was collected retro-orbitally from three animals per time point per dose and alternating animals between time points (except at 24 h, n = 6 per group) under isoflurane anesthesia using a heparinized capillary tube containing a clot activator (Microvette 500 Z-Gel, Sarstedt). Serum was collected by centrifuging the tubes at 4000 x g for 10 min, aliquoted, and stored at < -70°C until pharmacokinetic analysis. Daily clinical observations included monitoring of signs such as ruffled fur, hunched back posture, accelerated breathing and lethargy, and the body weight was monitored before and 24 h post administration.
# Bioanalysis and pharmacokinetic evaluation were performed at Prolytic GmbH (Frankfurt, Germany). […] liquid chromatography tandem mass spectrometry (HPLC-MS/MS) was employed to determine the concentration of zapnometinib in hamster serum in accordance with the company’s SOPs. During the analytical phase, two batches were evaluated. The acceptance criteria for the calibration standards and quality control (QC) samples were fulfilled for both batches as per the company’s SOPs. […] In total, 81 study test samples were analyzed. The validity of the method during the analysis of the test samples was ensured by assaying QC samples with known concentrations of zapnometinib; zapnometinib 13C6 was used as the internal standard. The lower limit of quantification (LLOQ) of the method was determined to be 10 ng/mL for zapnometinib in undiluted serum. All serum concentrations falling below LLOQ were assigned a value of 0. ANALYST software was used to calculate the concentrations of the test and QC samples based on the corresponding calibration curves. The obtained mean serum concentrations were used for noncompartmental pharmacokinetic evaluation with Phoenix® WinNonLin software (Pharsight Corporation, Mountain View, CA, USA; version 8.1).
# HCoV 229E = assay: Virus yield reduction assay, HCoV-229E on MRC-5 cells (RT-qPCR); format: cell-based; conditions: Human coronavirus 229E, MRC5, MOI 0.001, 48 h
# Protocol: The virus yield reduction assay of HCoV-229E and HCoV-OC43 was performed on MRC-5 cells seeded at 1.5x10^5 cells per well in 24-well plates 24 h prior infection with HCoV-229E (MOI 0.001) or HCoV-OC43 (MOI 0.1) for 1 h. The inoculum was completely removed, and the cells were treated with different concentrations of zapnometinib (50 µM to 0.006 µM) and a solvent control in Iscove’s Modified Dulbecco’s Medium (IMDM) containing 2% FBS, 1% Penicillin/Streptomycin at 34°C, 5% CO2 for 24 h (HCoV-OC43) or 48 h (HCoV-229E). Supernatants were harvested and the viral titer was determined by a real-time one-step multiplex RT-qPCR using specific primers targeting the N and NS2 genes for HCoV-229E and HCoV-OC43 respectively ( Supplementary Table 1 ) EC50 values were calculated based on the measured viral titers normalized to the solvent control (1% DMSO) and using the “log(inhibitor) vs. response - Variable slope (four parameters)” analysis in GraphPad Prism v9.
# [2] = test system: SARS-CoV-2 Omicron B1.1.592; assay: microbe, parasite or virus in culture; format: cell-based; conditions: Severe acute respiratory syndrome coronavirus 2, Calu-3, 24 h
# Vero E6 cells = conditions: Vero E6 24 h 5% FBS
# [3] = Syrian, hamster, serum, 15 mg/kg p.o. single dose
# [4] = Syrian, hamster, serum, 30 mg/kg p.o. single dose
# [5] = hamster, serum, 60 mg/kg p.o. single dose
# [6] = single doses of 15, 30 or 60 mg/kg p.o.
structure (smiles),measurement,setting,value
O=C(O)c1ccc(F)c(F)c1Nc1ccc(I)cc1Cl [zapnometinib],EC50,SARS-CoV-1,33.6 µM and 13.8 µg/mL
same,C(24 h),[1]; 15 mg/kg p.o. single dose,0.26 µM
same,C(24 h),[1]; 30 mg/kg p.o. single dose,0.55 µM
same,Cmax,"[1]; Syrian, hamster, 15 mg/kg p.o. single dose, serum",85100 ng/mL and 34.8 µM
same,Cmax,"[1]; Syrian, hamster, 30 mg/kg p.o. single dose, serum",53.9 µM
same,concentration at 24 h,"[1]; Syrian, hamster, serum, oral, 60 mg/kg p.o. single dose, read-out: concentration of zapnometinib after 24 h",5320 ng/mL and 13 µM
same,AUC,[1]; [3],672 µg·h/mL
same,Tmax,[1]; [3],2 h
same,half-life,"[1]; Syrian, hamster, serum, 15 mg/kg p.o. single dose, read-out: T1/2 (converted)",164 min
same,AUC,[1]; [4],1230 µg·h/mL
same,Tmax,[1]; [4],2 h
same,half-life,"[1]; Syrian, hamster, serum, 30 mg/kg p.o. single dose, read-out: T1/2 (converted)",165 min
same,half-life,"[1]; Syrian, hamster, serum, all dose groups (15, 30, 60 mg/kg p.o.), read-out: apparent terminal half-life",120 to 180 min
same,Cmax,"[1]; hamster, 30 mg/kg p.o. single dose, serum",132 µg/mL
same,Cmax,"[1]; hamster, 60 mg/kg p.o. single dose, serum",242000 ng/mL and 99.2 µM
same,AUC,[1]; [5],2970 µg·h/mL
same,Tmax,[1]; [5],4 h
same,half-life,"[1]; hamster, serum, 60 mg/kg p.o. single dose, read-out: T1/2 (converted)",184 min
same,adverse events,[1]; [6],no adverse events were reported
same,tolerability,[1]; [6],well tolerated
same,EC50,HCoV 229E,26.6 µM and 10.9 µg/mL
same,EC50,[2],37.9 µM and 15.5 µg/mL
same,%LDH release compared to maximum LDH release,Vero E6 cells; 0.39 µM,0.22%
same,%LDH release compared to maximum LDH release,Vero E6 cells; 0.78 µM,0.17%
same,%LDH release compared to maximum LDH release,Vero E6 cells; 1.56 µM,0.15%
same,%LDH release compared to maximum LDH release,Vero E6 cells; 3.13 µM,0.39%
same,%LDH release compared to maximum LDH release,Vero E6 cells; 6.25 µM,0.13%
same,%LDH release compared to maximum LDH release,Vero E6 cells; 12.50 µM,0.09%
same,%LDH release compared to maximum LDH release,Vero E6 cells; 25.00 µM,-0.04%
same,%LDH release compared to maximum LDH release,Vero E6 cells; 50.00 µM,0.02%
same,%LDH release compared to maximum LDH release,Vero E6 cells; 75.00 µM,0.24%
same,%LDH release compared to maximum LDH release,Vero E6 cells; 100.00 µM,0.26%
